Laboratory results reported in ChEMBL document CHEMBL1201862, “PubChem BioAssay data set” (2004).
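Where inhibition never reached the appropriate level, the endpoint shown equals the highest concentration tested. Otherwise, values were interpolated linearly from a five-concentration, 48-hour dose response in 96-well plates. At the GI50, growth is halved.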 Calls of active or inactive are those of the source. Cut-off read from the data, not from the text of the source: active = GI50 up to about 1.1 µM and inactive = higher. Positions of bridges follow the written chain, without caps; N, C: chain ends. Residues, ends and D or L forms follow the SMILES beside them.

Columns and labels:
Assay in all cases: NCI tumour cell line growth inhibition, 48 h
ACHN = tested on: ACHN
CAKI-1 = tested on: CAKI-1
CCRF-CEM = tested on: CCRF-CEM
HCT-15 = tested on: HCT-15
HL-60 = tested on: HL-60
HOP-92 = tested on: HOP-92
IGROV-1 = tested on: IGROV-1
K562 = tested on: K562
KM12 = tested on: KM12
M14 = tested on: M14
MDA-MB-231 = tested on: MDA-MB-231
NCI-H460 = tested on: NCI-H460
NCI/ADR-RES = tested on: NCI/ADR-RES
OVCAR-8 = tested on: OVCAR-8
RPMI-8226 = tested on: RPMI-8226
RXF 393 = tested on: RXF 393
SF-268 = tested on: SF-268
SR = tested on: SR
SW-620 = tested on: SW-620

SMILES | GI50 (ACHN) | GI50 (CAKI-1) | GI50 (CCRF-CEM) | GI50 (HCT-15) | GI50 (HL-60) | GI50 (HOP-92) | GI50 (IGROV-1) | GI50 (K562) | GI50 (KM12) | GI50 (M14) | GI50 (MDA-MB-231) | GI50 (NCI-H460) | GI50 (NCI/ADR-RES) | GI50 (OVCAR-8) | GI50 (RPMI-8226) | GI50 (RXF 393) | GI50 (SF-268) | GI50 (SR) | GI50 (SW-620)
O=C(Cc1ccc(OCc2cccc(Cl)c2)cc1)NO | 25.2 µM (inactive) | 19.9 µM (inactive) | 6.76 µM (inactive) | 14.1 µM | 12.1 µM (inactive) | 41 µM (inactive) | 17.5 µM (inactive) | 16.1 µM (inactive) | 27.6 µM (inactive) | 29.4 µM (inactive) | 41.8 µM (inactive) | 23.1 µM (inactive) | 12.2 µM (inactive) | 11.7 µM (inactive) | 3.77 µM (inactive) | 26 µM (inactive) | 20 µM (inactive) | 5.81 µM (inactive) | 31.3 µM (inactive)
Cc1ccc(SCC(CF)OC(C)n2cnc3c(Cl)nc(N)nc32)cc1 (stereo not drawn) | 35.2 µM (inactive) | 84.7 µM (inactive) | 81.1 µM (inactive) | > 100 µM | 22.7 µM (inactive) | 59.8 µM (inactive) | > 100 µM (inactive) |  | > 100 µM (inactive) | > 100 µM (inactive) | 46.6 µM (inactive) | 53 µM (inactive) | 25.1 µM (inactive) | 69.7 µM (inactive) | > 100 µM (inactive) |  | 96.8 µM (inactive) | 40 µM (inactive) | > 100 µM (inactive)
Nc1nc(=O)c2c([nH]1)NCC(CCNc1ccc(C(=O)O)cc1)N2 (stereo not drawn) | > 100 µM (inactive) | > 100 µM (inactive) | > 100 µM (inactive) | > 100 µM | 78 µM (inactive) | > 100 µM (inactive) | > 100 µM (inactive) | > 100 µM (inactive) | > 100 µM (inactive) | > 100 µM (inactive) | > 100 µM (inactive) | > 100 µM (inactive) | > 100 µM (inactive) | > 100 µM (inactive) | > 100 µM (inactive) | > 100 µM (inactive) | > 100 µM (inactive) | > 100 µM (inactive) | > 100 µM (inactive)
Cc1cc(C)c2ccc(N3CCNCC3)nc2n1 | > 100 µM (inactive) | > 100 µM (inactive) | > 100 µM (inactive) | > 100 µM | 55.7 µM (inactive) | > 100 µM (inactive) | > 100 µM (inactive) | > 100 µM (inactive) | > 100 µM (inactive) | > 100 µM (inactive) | > 100 µM (inactive) | > 100 µM (inactive) | > 100 µM (inactive) | > 100 µM (inactive) | > 100 µM (inactive) |  | > 100 µM (inactive) | > 100 µM (inactive) | > 100 µM (inactive)
CC(/C=N/N(C)C1=NCCCN1)=N/N(C)C1=NCCCN1 | > 100 µM (inactive) | > 100 µM (inactive) | > 100 µM (inactive) | > 100 µM | > 100 µM (inactive) | > 100 µM (inactive) | > 100 µM (inactive) | > 100 µM (inactive) | > 100 µM (inactive) |  | > 100 µM (inactive) | > 100 µM (inactive) | > 100 µM (inactive) | > 100 µM (inactive) | > 100 µM (inactive) | > 100 µM (inactive) | > 100 µM (inactive) | > 100 µM (inactive) | > 100 µM (inactive)
C(=N\N=C1NCCN1)/c1ccc2ccccc2c1 | 16.5 µM (inactive) | 9.02 µM (inactive) | 8.59 µM (inactive) | 18.2 µM | 8.67 µM (inactive) | 0.174 µM (active) | 9.95 µM (inactive) | 11.6 µM (inactive) | 14.9 µM (inactive) |  | 16.4 µM (inactive) | 14.4 µM (inactive) | 11.8 µM (inactive) | 16.4 µM (inactive) | 12 µM (inactive) | 17.7 µM (inactive) | 17.9 µM (inactive) | 12.9 µM (inactive) | 16.3 µM (inactive)
O=C(c1ccc(/N=C/c2ccccc2O)cc1)c1ccc(/N=C/c2ccccc2O)cc1 | > 100 µM (inactive) | > 100 µM (inactive) |  | > 100 µM | > 100 µM (inactive) | > 100 µM (inactive) | > 100 µM (inactive) | > 100 µM (inactive) | > 100 µM (inactive) | > 100 µM (inactive) | > 100 µM (inactive) | > 100 µM (inactive) | > 100 µM (inactive) |  | > 100 µM (inactive) | > 100 µM (inactive) | > 100 µM (inactive) | > 100 µM (inactive) | > 100 µM (inactive)
Cc1cccc(C)c1N1C(=O)C2c3[nH]c4ccccc4c3C3CCC(C(C)(C)C)CC3C2C1=O (stereo not drawn) | 12.4 µM (inactive) | 12.3 µM (inactive) | 12.6 µM (inactive) | 11.4 µM | 12.8 µM (inactive) | 6.32 µM (inactive) | 15 µM (inactive) | 9.06 µM (inactive) |  | 13.6 µM (inactive) | 11.9 µM (inactive) | 5.73 µM (inactive) | 13.8 µM (inactive) | 17 µM (inactive) | 19.3 µM (inactive) | 8.97 µM (inactive) | 14.4 µM (inactive) | 9.91 µM (inactive) | 5.74 µM (inactive)
COc1ccc(-c2nc3ncccn3c2-c2ccc([S+](C)[O-])cc2)cc1 (stereo not drawn) | > 100 µM (inactive) | 14.2 µM (inactive) | > 100 µM (inactive) | > 100 µM | > 100 µM (inactive) | 61.2 µM (inactive) | > 100 µM (inactive) | > 100 µM (inactive) | 80.9 µM (inactive) | > 100 µM (inactive) | > 100 µM (inactive) | > 100 µM (inactive) | > 100 µM (inactive) | > 100 µM (inactive) | > 100 µM (inactive) |  | 89.5 µM (inactive) | 50.7 µM (inactive) | > 100 µM (inactive)
Cc1ccc(-c2cc(O)c3nc4ccccc4n3c2)cc1 |  | > 100 µM (inactive) | > 100 µM (inactive) | > 100 µM | > 100 µM (inactive) | > 100 µM (inactive) | > 100 µM (inactive) | > 100 µM (inactive) | > 100 µM (inactive) | > 100 µM (inactive) | > 100 µM (inactive) | 60.8 µM (inactive) | > 100 µM (inactive) | 54.3 µM (inactive) | > 100 µM (inactive) | > 100 µM (inactive) | > 100 µM (inactive) | > 100 µM (inactive) | > 100 µM (inactive)
CCC(C)C1NC(=O)C(CC(C)C)NC(=O)C(C(C)C)NC(=O)C2CSSCC(NC1=O)C(=O)N2 (stereo not drawn) (cyclo(CCVLI); disulfide 1-2; configuration not given here) | 0.458 µM (active) | 1.74 µM (inactive) | 0.0228 µM (active) | 1.86 µM | 0.155 µM (active) | 0.121 µM (active) | 0.165 µM (active) |  | 0.0507 µM (active) | 0.277 µM (active) | 0.103 µM (active) | 0.116 µM (active) | 2.55 µM (inactive) | 0.194 µM (active) | 0.0262 µM (active) |  | 0.0387 µM (active) | 0.178 µM (active) | 0.16 µM (active)
NC(Cc1c[nH]c2cc([N+](=O)[O-])ccc12)C(=O)O (stereo not drawn) | > 100 µM (inactive) | > 100 µM (inactive) |  | > 100 µM |  | 67.6 µM (inactive) | 57.4 µM (inactive) | > 100 µM (inactive) | > 100 µM (inactive) | > 100 µM (inactive) | > 100 µM (inactive) | > 100 µM (inactive) | > 100 µM (inactive) | > 100 µM (inactive) | > 100 µM (inactive) | > 100 µM (inactive) | > 100 µM (inactive) | > 100 µM (inactive) | > 100 µM (inactive)
C=C1C(=O)[C@]23C[C@H]1C[C@@H](O)[C@H]2[C@]1(COC3=O)[C@@H](OC(C)=O)CC[C@@](C)(COC(C)=O)[C@H]1C=O [LOXOTHYRIN A] | > 50 µM (inactive) | 9.38 µM (inactive) | 7.28 µM (inactive) | > 50 µM | 8.59 µM (inactive) | 10.2 µM (inactive) | > 50 µM (inactive) | 6.97 µM (inactive) | > 50 µM (inactive) |  | > 50 µM (inactive) | > 50 µM (inactive) | > 50 µM (inactive) | > 50 µM (inactive) |  | 17.2 µM (inactive) | 13.8 µM (inactive) | 28.4 µM (inactive) | 9.29 µM (inactive)
OCC1OC(n2cnc3c2N=CNC[C@H]3O)C(Cl)C1O (stereo partly drawn) | > 100 µM (inactive) | > 100 µM (inactive) | > 100 µM (inactive) | > 100 µM | > 100 µM (inactive) | > 100 µM (inactive) | > 100 µM (inactive) |  | > 100 µM (inactive) | > 100 µM (inactive) | > 100 µM (inactive) | > 100 µM (inactive) | > 100 µM (inactive) | > 100 µM (inactive) | > 100 µM (inactive) |  | > 100 µM (inactive) | > 100 µM (inactive) | > 100 µM (inactive)
Cc1ccc(/N=C2\C(=N/c3ccc(C)cc3)N(c3ccc(C)cc3)C(=S)N2C(=O)c2ccccc2)cc1 | > 100 µM (inactive) | > 100 µM (inactive) |  | > 100 µM |  | > 100 µM (inactive) | > 100 µM (inactive) | > 100 µM (inactive) | > 100 µM (inactive) | > 100 µM (inactive) | > 100 µM (inactive) | > 100 µM (inactive) | > 100 µM (inactive) | > 10 µM (inactive) | > 100 µM (inactive) | 46.8 µM (inactive) | > 100 µM (inactive) | > 100 µM (inactive) | > 100 µM (inactive)
COC(=O)C1(Cc2ccccc2)Cc2cc3c(cc2C1O)CCC3 (stereo not drawn) | 17.1 µM (inactive) | 11.6 µM (inactive) | 16.1 µM (inactive) | 30.5 µM | 24.5 µM (inactive) | 16 µM (inactive) | 15.8 µM (inactive) | 19.7 µM (inactive) | 21.3 µM (inactive) |  | 18.3 µM (inactive) | 30.1 µM (inactive) | 18.4 µM (inactive) | 25.6 µM (inactive) | 22.7 µM (inactive) | 15 µM (inactive) | 30.3 µM (inactive) | 26.7 µM (inactive) | 13.2 µM (inactive)
